Reference: patent US9951040B2, “1,3,5 -triazine based PI3K inhibitors as anticancer agents and a process for the preparation thereof” (Council of Scientific and Industrial Research, priority 2014, dated 2018)
Where two headings read alike, the source gives them in different places.

Experiments:
PI3K alpha = PI3K alpha (Homo sapiens, UniProt P42336); experiment: PI3K-α assay (ADP-Glo enzyme inhibition); format: biochemical; details: at 500 nm
In short: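 ADP-Glo read-out after an 80 min reaction with 0.01 mM ATP and 0.05 mM diC8 PIP2 in 12.5 mM glycine-NaOH pH 8.5, 50 mM KCl, 2.5 mM MgCl2, 1 mM DTT, 0.05% CHAPS. Luminescence read after 40 min ADP-Glo reagent and 40 min detection steps.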

MCF-7 Cell line = experiment: MTT cell proliferation assay, MCF-7; format: cell-based; details: Homo sapiens, MCF7, 120 h, 5 days
Procedure: (§1) Human breast cancer cell lines MDAMB231, MFC-7 and human prostate carcinoma cell line PC-3 were obtained from European Collection of Cell Cultures (ECACC). Cells were grown in […] medium supplemented with 10% fetal bovine serum (FBS), penicillin (100 units/ml), streptomycin (100 μg/ml), L-glutamine (0.3 mg/ml), sodium pyruvate ([…]), and NaHCO3 (2 mg/ml). Cells were grown in CO2 incubator (Thermocon Electron Corporation, USA) at 37° C. in an atmosphere of 95% air and 5% CO2 with 98% humidity. Different molecules were dissolved in DMSO and were delivered to cell cultures in complete medium.
(§2) MTT assay was done to determine the viability of the cells and was done as described previously (Kumar et al, 2013). Briefly, 6×10^3 were seeded in 96 well plates and were treated with different concentrations of different molecules for 5 days. 20 μl of MTT dye (2.5 mg/ml) was added 3 h before the termination of the experiment. Formazen crystals were dissolved in 150 μl of DMSO and OD was measured at 570 nm.

PC-3 Cell line = experiment: MTT cell proliferation assay, PC-3; format: cell-based; details: Homo sapiens, PC-3, 120 h, 5 days
Procedure: as §1, §2

MDA-MB231 Cell line = experiment: MTT cell proliferation assay, MDA-MB231; format: cell-based; details: Homo sapiens, MDA-MB-231, 120 h, 5 days
Procedure: as §1, §2

[1] = read-out: In vitro PI3K α % of inhibition
[2] = read-out: inhibition against PI3K alpha

Sequence of PI3K alpha (P42336 whole entry, species assumed): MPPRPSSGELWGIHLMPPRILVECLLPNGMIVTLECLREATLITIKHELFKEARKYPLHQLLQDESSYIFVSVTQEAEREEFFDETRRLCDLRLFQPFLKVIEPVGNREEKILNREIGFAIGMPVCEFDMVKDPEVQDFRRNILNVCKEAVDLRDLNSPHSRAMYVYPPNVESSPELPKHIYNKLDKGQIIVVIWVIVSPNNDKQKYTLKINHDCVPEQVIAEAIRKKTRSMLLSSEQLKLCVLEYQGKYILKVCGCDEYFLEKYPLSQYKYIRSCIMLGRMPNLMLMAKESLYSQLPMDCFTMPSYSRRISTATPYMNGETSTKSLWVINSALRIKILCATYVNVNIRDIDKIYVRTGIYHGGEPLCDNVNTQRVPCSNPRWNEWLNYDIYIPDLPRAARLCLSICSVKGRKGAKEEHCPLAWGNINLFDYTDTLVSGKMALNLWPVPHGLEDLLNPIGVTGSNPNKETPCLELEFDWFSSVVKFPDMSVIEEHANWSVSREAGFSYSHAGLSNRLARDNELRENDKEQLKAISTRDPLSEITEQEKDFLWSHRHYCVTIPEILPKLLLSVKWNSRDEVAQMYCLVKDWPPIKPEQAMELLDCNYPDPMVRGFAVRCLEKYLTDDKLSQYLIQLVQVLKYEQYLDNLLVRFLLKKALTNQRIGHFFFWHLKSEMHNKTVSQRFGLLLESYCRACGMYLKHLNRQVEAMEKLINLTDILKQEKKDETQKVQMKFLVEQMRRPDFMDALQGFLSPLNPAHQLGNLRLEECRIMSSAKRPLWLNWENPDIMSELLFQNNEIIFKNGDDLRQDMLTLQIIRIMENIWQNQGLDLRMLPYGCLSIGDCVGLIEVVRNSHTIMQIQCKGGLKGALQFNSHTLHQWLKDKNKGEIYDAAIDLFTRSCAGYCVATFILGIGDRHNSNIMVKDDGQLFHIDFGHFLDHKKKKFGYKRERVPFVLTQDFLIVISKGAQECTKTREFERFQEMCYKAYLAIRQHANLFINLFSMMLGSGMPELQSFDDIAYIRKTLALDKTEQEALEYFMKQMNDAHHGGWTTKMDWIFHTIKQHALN
Sequence of PI3K alpha (P27986 whole entry partner, species assumed): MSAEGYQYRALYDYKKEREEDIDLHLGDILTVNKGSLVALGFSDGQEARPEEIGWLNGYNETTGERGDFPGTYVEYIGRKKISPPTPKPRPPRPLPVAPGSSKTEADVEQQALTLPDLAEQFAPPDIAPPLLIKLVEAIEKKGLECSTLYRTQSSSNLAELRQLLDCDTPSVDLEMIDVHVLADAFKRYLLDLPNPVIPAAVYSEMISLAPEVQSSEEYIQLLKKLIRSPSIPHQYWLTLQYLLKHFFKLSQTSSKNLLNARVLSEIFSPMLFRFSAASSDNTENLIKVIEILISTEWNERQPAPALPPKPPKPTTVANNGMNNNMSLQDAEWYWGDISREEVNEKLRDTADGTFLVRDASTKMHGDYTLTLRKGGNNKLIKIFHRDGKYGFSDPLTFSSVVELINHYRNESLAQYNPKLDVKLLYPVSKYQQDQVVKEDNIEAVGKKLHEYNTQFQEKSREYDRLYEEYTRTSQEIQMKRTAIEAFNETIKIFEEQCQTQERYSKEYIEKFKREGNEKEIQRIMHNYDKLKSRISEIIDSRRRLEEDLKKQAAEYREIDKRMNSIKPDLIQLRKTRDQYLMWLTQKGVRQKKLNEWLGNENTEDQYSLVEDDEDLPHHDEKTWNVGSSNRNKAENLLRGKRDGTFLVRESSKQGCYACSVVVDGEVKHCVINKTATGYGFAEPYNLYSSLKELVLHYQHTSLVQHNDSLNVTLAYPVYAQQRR

| SMILES | inhibition at 0.5 µM (PI3K alpha; [1]) [%] | inhibition at 0.5 µM (PI3K alpha; [2]) [%] | inhibition at 10 µM (MCF-7 Cell line) [%] | inhibition at 10 µM (PC-3 Cell line) [%] | inhibition at 10 µM (MDA-MB231 Cell line) [%] | In vitro PI3K α % of inhibition (PI3K alpha) |
| --- | --- | --- | --- | --- | --- | --- |
| O=C(N(c1ccc(F)cc1)c1nc(N2CCOCC2)nc(N2CCC(Oc3ccccc3)CC2)n1)C(F)(F)F [1A5, 2,2,2-trifluoro-N-(4-fluorophenyl)-N-(4-morpholino-6-(4-phenoxypiperidin-1-yl)-1,3,5-triazin-2-yl)acetamide] | > 70 | > 70 | 30 to 50 | > 50 | 30 to 50 |  |
| Cc1cccc(OC2CCN(c3nc(N4CCOCC4)nc(-n4c(C(F)F)nc5ccccc54)n3)CC2)c1 [1B11, 4-(4-(2-(difluoromethyl)-1H-benzo[d]imidazol-1-yl)-6-(4-(m-tolyloxy)piperidin-1-yl)-1,3,5-triazin-2-yl)morpholine] | > 70 | > 70 |  | > 50 | 30 to 50 |  |
| Cc1ccccc1OC1CCN(c2nc(N3CCOCC3)nc(-n3c(C(F)F)nc4ccccc43)n2)CC1 [1B12, 4-(4-(2-(difluoromethyl)-1H-benzo[d]imidazol-1-yl)-6-(4-(o-tolyloxy)piperidin-1-yl)-1,3,5-triazin-2-yl)morpholine] | > 70 | > 70 | > 50 | 30 to 50 | 30 to 50 |  |
| FC(F)c1nc2ccccc2n1-c1nc(N2CCOCC2)nc(N2CCOCC2)n1 [ZSTK474, reference compound] |  |  | > 50 | > 50 | > 50 | ++ (++ indicates greater than 70% of inhibition) |
| Fc1ccc(OC2CCN(c3nc(N4CCOCC4)nc(-n4c(C(F)F)nc5ccccc54)n3)CC2)cc1 [1B1, 4-(4-(2-(difluoromethyl)-1H-benzo[d]imidazol-1-yl)-6-(4-(4-fluorophenoxy)piperidin-1-yl)-1,3,5-triazin-2-yl)morpholine] | > 70 | > 70 | > 50 | > 50 | > 50 |  |
| Fc1ccccc1NC1CCN(c2nc(N3CCOCC3)nc(-n3c(C(F)F)nc4ccccc43)n2)CC1 [1B27, 1-(4-(2-(difluoromethyl)-1H-benzo[d]imidazol-1-yl)-6-morpholino-1,3,5-triazin-2-yl)-N-(2-fluorophenyl)piperidin-4-amine] | 50 to 70 |  | > 50 | 30 to 50 | 30 to 50 |  |
| COc1ccc(OC2CCN(c3nc(N4CCOCC4)nc(-n4c(C(F)F)nc5ccccc54)n3)CC2)cc1 [1B2, 4-(4-(2-(difluoromethyl)-1H-benzo[d]imidazol-1-yl)-6-(4-(4-methoxyphenoxy)piperidin-1-yl)-1,3,5-triazin-2-yl)morpholine] | 50 to 70 |  | > 50 | 30 to 50 | > 50 |  |
| Cc1ccccc1NC1CCN(c2nc(N3CCOCC3)nc(-n3c(C(F)F)nc4ccccc43)n2)CC1 [1B32, 1-(4-(2-(difluoromethyl)-1H-benzo[d]imidazol-1-yl)-6-morpholino-1,3,5-triazin-2-yl)-N-(o-tolyl)piperidin-4-amine] | 50 to 70 |  | > 50 | 30 to 50 | 30 to 50 |  |
| FC(F)c1nc2ccccc2n1-c1nc(N2CCOCC2)nc(N2CCC(Nc3ccc(Cl)c(Cl)c3)CC2)n1 [1B26, N-(3,4-dichlorophenyl)-1-(4-(2-(difluoromethyl)-1H-benzo[d]imidazol-1-yl)-6-morpholino-1,3,5-triazin-2-yl)piperidin-4-amine] | > 70 | > 70 | > 50 | 30 to 50 | > 50 |  |
| O=C(N(c1ccccc1)c1nc(N2CCOCC2)nc(N2CCC(Oc3ccc(OC(F)(F)F)cc3)CC2)n1)C(F)(F)F [1A9, 2,2,2-trifluoro-N-(4-morpholino-6-(4-(4-(trifluoromethoxy)phenoxy)piperidin-1-yl)-1,3,5-triazin-2-yl)-N-phenylacetamide] | > 70 | > 70 | > 50 | 30 to 50 | > 50 |  |
| Cc1ccc(NC2CCN(c3nc(N4CCOCC4)nc(-n4c(C(F)F)nc5ccccc54)n3)CC2)cc1 [1B30, 1-(4-(2-(difluoromethyl)-1H-benzo[d]imidazol-1-yl)-6-morpholino-1,3,5-triazin-2-yl)-N-(p-tolyl)piperidin-4-amine] | 50 to 70 |  | > 50 | 30 to 50 | 30 to 50 |  |
| FC(F)c1nc2ccccc2n1-c1nc(N2CCOCC2)nc(N2CCC(Oc3ccc(Cl)cc3)CC2)n1 [1B5, 4-(4-(4-(4-chlorophenoxy)piperidin-1-yl)-6-(2-(difluoromethyl)-1H-benzo[d]imidazol-1-yl)-1,3,5-triazin-2-yl)morpholine] | 50 to 70 |  | > 50 |  | 30 to 50 |  |
| FC(F)c1nc2ccccc2n1-c1nc(N2CCOCC2)nc(N2CCC(Oc3ccccc3Cl)CC2)n1 [1B7, 4-(4-(4-(2-chlorophenoxy)piperidin-1-yl)-6-(2-(difluoromethyl)-1H-benzo[d]imidazol-1-yl)-1,3,5-triazin-2-yl)morpholine] | 50 to 70 |  | > 50 |  | 30 to 50 |  |
